Results published in patent publication US20220111013A1, “COMPOUND DECREASING THE CONCENTRATION OF 2-HYDROXY-GLUTARATE” (Universität Heidelberg, priority 2019, published 2022).
Entries after “also recorded” stand apart in the source; their conditions may differ. Positions of bridges follow the written chain, without caps; N, C: chain ends. No end group written: not given here.

Legend:
L2HGDH = test: Gene expression analysis of L2HGDH in Ang-II infusion mice model; assay type: in vivo; conditions: Ang-II infusion mice vs controls
Procedure: (§1) RNA was extracted and purified from frozen mouse heart using Trizol reagent (QIAzol lysis reagent, Qiagen) following manufacturer's instructions, followed by DnaseI digestion. Nucleic acid yields were analyzed photometrically (NanoDrop ND-1000, Spectrophotometer). 1.5 μg RNA was reverse transcribed into cDNA using Superscript III Kit (Invitrogen) and oligo(dT) Primers. cDNA synthesis was followed by RNA digestion using RNase H. qRT-PCR was executed using iTaq Universal SYBR Green Supermix (Thermo Fisher Scientific) and CFX96 Touch Real-Time PCR detection system (Bio Rad) as previously described (Doehner 2014). The following primers used for cDNA relative quantification are listed below.

[1] = system: primary neonatal rat ventricular cardiomyocytes (NRVCMs); test: Measurement of mitochondrial ROS production with MitoSOX in NRVCM; assay type: cell-based; conditions: ET-1 stimulation 200 μmol/l for 24 hours, compared to control
Procedure: NRVCMs were isolated and prepared as published previously (Rangrez et al. 2013). Briefly, left ventricles from 1-2 days old Wistar rats (Charles River) were harvested and cut in pH 7.4 buffer containing 120 mmol/liter NaCl, 20 mmol/liter Hepes, 8 mmol/liter NaH2PO4, 6 mmol/liter glucose, 5 mmol/liter KCl, and 0.8 mmol/liter MgSO4. The separation of single cardiomyocyte from cut tissue mass, was achieved by enzymatic digestion with 0.6 mg/ml pancreatin (Sigma) at 37° C. and 0.5 mg/ml collagenase type 11 (Worthington). Cell suspension was filtered by a cell strainer. Newborn calf serum was added to stop enzymatic digestion. In order to separate cardiomyocytes from fibroblasts, a Percoll gradient (GE Healthcare) centrifugation step was performed. Afterwards, cardiomyocytes were cultured in DMEM medium containing 10% fetal calf serum (FCS), 2 mM penicillin/streptomycin, and L-glutamine (PAA Laboratories). […]
MitoSOX was applied to culture medium to a final concentration of 0.5 μM and cells were incubated for 15 minutes at 37° C. […] The fluorescence (red) was detected (Ex: 400 nm, Em at 590 nm) using confocal microscopy (Zeiss LSM 800). Mean fluorescence intensity (MFI) was calculated from the total fluorescence intensity detected from viable cells and divided by the number of cells using the software generated by Image J software (NIH, Bethesda, Md., USA).

NRVCMs [2] = test: Mitochondrial membrane potential (JC-1) in NRVCMs; assay type: cell-based, rat; conditions: 2HG treatment
Procedure: In additional experiments, […] were transduced with AAV6 vectors, either overexpressing L2HGDH or luciferase (Luc) as control at the M01=10^5 vp/cell. Three days after transduction L-2HG (Sigma-Aldrich) was applied to cell culture medium to a final concentration of 2 mM. Cells were harvested 2 days after treatment. Similarly, JC-1 was applied to cell culture medium to a concentration of 1 μmol/L and cells were incubated at 37° C. for 30 min. After washing with warm PBS, cells were imaged in FluoroBrite DMEM (J-monomers Ex:485; Em:535/J-aggregates Ex: 530; Em:590) using a confocal microscope (LSM800, Zeiss). Mean fluorescence intensity was analysed using ImageJ.

NRVCMs [3] = test: Mitochondrial membrane potential (TMRE) in NRVCMs; assay type: cell-based, rat; conditions: L-2HG treatment, live cell monitoring
Procedure: In additional experiments, […] were transduced with AAV6 vectors, either overexpressing L2HGDH or luciferase (Luc) as control at the M01=10^5 vp/cell. Three days after transduction L-2HG (Sigma-Aldrich) was applied to cell culture medium to a final concentration of 2 mM. Cells were harvested 2 days after treatment. […] were maintained in μ-Slide 8-wells, (Ibidi), suitable for live cell imaging. Cells were incubated with tetramethylrhodamine (TMRE) at 37° C. to a concentration of 50 nmol/L for 30 min. Afterwards, cells were washed with warm PBS and media was replaced with FluoroBrite DMEM (Thermo Fischer Scientific). Cells were imaged within 30 min (Ex: 549; Em: 574 nm).

NRVCMs [4] = test: 2HG induced cardiomyocyte hypertrophy in NRVCMs with AAV6 transduction; assay type: cell-based, rat; conditions: L-2HG 2 mM, 2 days
Procedure: as §1
In additional experiments, NRVCMs were transduced with AAV6 vectors, either overexpressing L2HGDH or luciferase (Luc) as control at the M01=10^5 vp/cell. Three days after transduction L-2HG (Sigma-Aldrich) was applied to cell culture medium to a final concentration of 2 mM. Cells were harvested 2 days after treatment.
Cardiomyocytes were fixed with 4% PFA and blocked in 2.5% BSA in PBS including 0.1% Triton. Next NRVCMs were incubated with monoclonal mouse anti-α-actinin (1:200 in 2.5% BSA in PBS; Sigma) antibody for 1 hour at room temperature. After washing with PBS, secondary antibody conjugated to Alexa Fluor-546 (Thermo Fisher Scientific) together with nuclear stain DAPI (Sigma-Aldrich) at a dilution of 1:200 or 1:1000 respectively in 2.5% BSA in PBS were applied and incubated for 1 h. Afterwards, coverslips were mounted using FluorPreserve reagent (Merck Millipore). Florescence graphs were collected with Keyence fluorescence microscope BZ-9000 at ×10 magnification (objective: CFI Plan Apochromat λ×10; Nikon) and BZ-II viewer software (Keyence, version 2.1). 10 pictures were taken from each coverslip. BZ-II Analyzer (version 2.1) were used to process and analyze the graphs. HybridCellCount module and fluorescence intensity singe-extraction mode were applied for cell size measurement.

[5] = system: primary rat neonatal fibroblasts; test: L-2HG on fibroblast proliferation and collagen synthesis; assay type: cell-based; conditions: disodium salt; for collagen3a1 expression: Western blot, non-treated fibroblasts as control; for fibroblast proliferation, Ki67-positive nuclei: immunocytochemistry
Tet2 = biological target: T1, Tet2 (Rattus norvegicus, UniProt A0ABK0LWH5); test: Assessment of hydroxymethylation status of cytosine (5mC-Hydroxylase TET activity kit) after 2-HG treatment; assay type: cell-based; conditions: nuclear extracts of NRVCMs after 2-HG treatment
T1 construct: nuclear extracts isolated from NRVCMs; endogenous in cells; host or cells: primary neonatal rat ventricular cardiomyocytes (NRVCMs), nuclear extract
Procedure: Epigenase 5mC-Hydroxylase TET Activity/Inhibition Assay Kit was employed to analyse Tet2 activity in nuclear extracts isolated from NRVCMs after 2-HG treatment. Cell fractionation was performed according to standard REAP protocol (Suzuki et al. 2010). The measurement of hydroxymethylcytosine (hmC) amount was performed according to manufacturer's instructions. 50 μg of nuclear protein was used per sample.

NRVCMs [6] = test: Pro-hypertrophic effects of 2-HG on NRVCMs (cell size, ANP and BNP mRNA); assay type: cell-based, rat; conditions: 2 days
Procedure: as §1
NRVCMs were isolated and prepared as published previously (Rangrez et al. 2013). […]
Cardiomyocytes were fixed with 4% PFA and blocked in 2.5% BSA in PBS including 0.1% Triton. […] Florescence graphs were collected with Keyence fluorescence microscope BZ-9000 at ×10 magnification (objective: CFI Plan Apochromat λ×10; Nikon) and BZ-II viewer software (Keyence, version 2.1). […] HybridCellCount module and fluorescence intensity singe-extraction mode were applied for cell size measurement.

T1 sequence (A0ABK0LWH5 1-1959): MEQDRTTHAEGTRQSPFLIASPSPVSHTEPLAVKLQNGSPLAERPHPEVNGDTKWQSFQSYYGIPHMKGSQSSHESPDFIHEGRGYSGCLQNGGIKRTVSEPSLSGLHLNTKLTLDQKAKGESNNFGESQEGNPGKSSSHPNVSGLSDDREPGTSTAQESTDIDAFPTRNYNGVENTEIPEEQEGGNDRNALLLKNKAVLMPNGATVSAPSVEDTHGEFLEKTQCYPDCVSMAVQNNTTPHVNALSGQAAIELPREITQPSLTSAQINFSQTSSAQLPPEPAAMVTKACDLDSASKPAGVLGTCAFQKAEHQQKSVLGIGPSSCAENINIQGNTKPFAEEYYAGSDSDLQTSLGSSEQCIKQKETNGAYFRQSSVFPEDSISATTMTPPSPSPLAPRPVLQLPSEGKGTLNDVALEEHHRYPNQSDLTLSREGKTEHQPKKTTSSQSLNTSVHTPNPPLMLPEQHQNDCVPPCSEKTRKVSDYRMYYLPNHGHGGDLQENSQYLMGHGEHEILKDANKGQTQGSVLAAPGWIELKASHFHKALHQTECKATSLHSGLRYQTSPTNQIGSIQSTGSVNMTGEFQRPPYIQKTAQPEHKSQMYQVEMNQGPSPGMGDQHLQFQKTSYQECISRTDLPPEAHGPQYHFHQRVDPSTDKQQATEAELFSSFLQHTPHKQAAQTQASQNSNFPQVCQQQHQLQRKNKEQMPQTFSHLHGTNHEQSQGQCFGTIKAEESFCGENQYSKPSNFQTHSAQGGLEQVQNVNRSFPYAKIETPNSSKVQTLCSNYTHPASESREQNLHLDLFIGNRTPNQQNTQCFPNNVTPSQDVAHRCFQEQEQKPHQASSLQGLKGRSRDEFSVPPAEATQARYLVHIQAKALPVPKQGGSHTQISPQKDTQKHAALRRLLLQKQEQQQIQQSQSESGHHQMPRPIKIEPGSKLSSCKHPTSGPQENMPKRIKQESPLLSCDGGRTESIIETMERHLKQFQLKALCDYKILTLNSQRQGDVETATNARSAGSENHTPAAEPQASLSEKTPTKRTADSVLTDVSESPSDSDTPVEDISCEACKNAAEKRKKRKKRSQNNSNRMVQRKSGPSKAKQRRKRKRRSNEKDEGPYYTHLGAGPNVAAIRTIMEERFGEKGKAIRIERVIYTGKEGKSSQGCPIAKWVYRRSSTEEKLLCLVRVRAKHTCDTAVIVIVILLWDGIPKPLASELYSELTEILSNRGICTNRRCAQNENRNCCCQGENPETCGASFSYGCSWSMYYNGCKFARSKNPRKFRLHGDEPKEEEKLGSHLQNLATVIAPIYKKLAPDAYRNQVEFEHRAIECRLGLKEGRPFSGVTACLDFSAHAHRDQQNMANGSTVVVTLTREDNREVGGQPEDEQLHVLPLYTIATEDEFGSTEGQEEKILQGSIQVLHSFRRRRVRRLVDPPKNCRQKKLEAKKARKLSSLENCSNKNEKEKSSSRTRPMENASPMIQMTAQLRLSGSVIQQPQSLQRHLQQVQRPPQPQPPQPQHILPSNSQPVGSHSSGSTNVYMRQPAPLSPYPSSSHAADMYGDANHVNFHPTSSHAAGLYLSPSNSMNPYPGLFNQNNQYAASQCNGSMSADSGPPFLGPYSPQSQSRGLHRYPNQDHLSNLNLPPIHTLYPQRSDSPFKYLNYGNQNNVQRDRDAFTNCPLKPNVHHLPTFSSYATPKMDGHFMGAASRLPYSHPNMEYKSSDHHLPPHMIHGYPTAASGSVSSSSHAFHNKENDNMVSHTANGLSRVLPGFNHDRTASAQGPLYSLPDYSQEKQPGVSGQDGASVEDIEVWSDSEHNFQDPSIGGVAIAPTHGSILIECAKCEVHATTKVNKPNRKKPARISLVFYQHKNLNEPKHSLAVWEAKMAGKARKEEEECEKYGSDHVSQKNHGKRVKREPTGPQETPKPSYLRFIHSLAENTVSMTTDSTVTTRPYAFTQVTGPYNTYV

Ang-II: infused to give the Ang-II infusion mice model of cardiac hypertrophy (DRVYIHPF; Angiotensin-2; UniProt P01019 25-32, looked up)
down-regulation in L2HGDH mRNA level (L2HGDH): 35%

ET-1: hypertrophic stimulation applied to NRVCMs in serum-free medium (CSCSSLMDKECVYFCHLDIIW; disulfide 1-15, 3-11; ends not checked; UniProt P05305 53-73, looked up)
MitoSOX fluorescence level (ROS production) [1]: significant increase

O=C([O-])CC[C@H](O)C(=O)[O-].[Na+].[Na+] [2-HG, L-α-Hydroxyglutaric acid disodium salt]
JC-1 green/red mean fluorescence intensity (mitochondrial polarization) (NRVCMs [2]): mitochondrial depolarization | TMRE fluorescence (mitochondrial membrane potential) (NRVCMs [3]): time-dependent decrease | cell size (NRVCMs [4]): increased | mRNA levels of pro-hypertrophic markers (NRVCMs [4]): increased | induction of hypertrophy in NRVCMs (NRVCMs [4]; disodium salt): marked induction; also recorded: pro-hypertrophic | collagen3a1 expression [5]: induces | collagen3a1 expression ([5]; listed as L-2HG): significant increased | fibroblast proliferation, Ki67-positive nuclei [5]: induces | fibroblast proliferation, Ki67-positive nuclei ([5]; listed as L-2HG): dramatic increased | epigenetic 5-hmC deposition (Tet2): increased | cell size (NRVCMs [6]; 2-HG 2 mM in serum-free medium, vs non-treated cells): dramatic increase | fetal gene program, ANP and BNP mRNA (NRVCMs [6]; 2-HG 2 mM): marked increase
